# Data: US20120115742A1, “METHODS FOR IDENTIFICATION” (Cambridge Enterprise Limited, priority 2009, published 2012)
# Like-named read-outs stand apart in the source and are kept apart here.
# How the values were obtained:
# Panc-2H4 cells = experiment: Human Panc-2H4 insulin suppression assay; format: cell-based; conditions: for Human Panc-2H4 insulin suppression assay Max effect: suppression compared to vehicle
# Source text: (§1) Two different assays for “classical” sstr2 functions were adopted: (1) cultured foetal rat pituitary cells secreted growth hormone which is inhibited by sstr2 agonists in a dose-dependent fashion and (2) selected glucose-sensitive sub-clones of the human Panc-1 cell line secrete insulin which is inhibited by sstr2 agonists in a dose-dependent fashion.
# Glucose-sensitive sub-clones of the human Panc-1, a cell line derived from a pleiomorphic epithelioid carcinoma of the exocrine pancreas, were obtained essentially as described by Hamil et al. (2008) Biomed. Sci. Instrum. 44:441-6. Briefly, Panc-1 cells were subcultured in 24 well plates, and the medium was supplemented with an additional 5% glucose. […] The resulting sub-lines were then tested for glucose sensitivity by preparing wells of a 96-well plate (5×10^4 cells per well) which were then exposed to cultured medium containing a range of glucose concentrations (low glucose DMEM, DMEM, DMEM+1% glucose, DMEM+2.5% glucose and DMEM+5% glucose). After 24 hrs incubation, the conditioned medium was collected and assayed for insulin secretion by ELISA (Linco; cat# EZHI-14K) in accordance with the manufacturer's instructions. […] Further 96 well plates were prepared using Panc-2H4 (5×10^4 cells per well) in DMEM. After 24 hrs, the medium was switched to DMEM+5% glucose containing various test agents at various concentrations (triplicate wells per condition). After a further 24 hrs, the conditioned medium was harvested and the concentration of insulin was determined by ELISA as described above.
# (§2) Results were reported as the mean SD, expressed as the fold change from cells in the presence of vehicle only.
# THP-1 cells = experiment: MCP-1 induced THP-1 cell migration (Transwell/ChemoTx); conditions: for RATIO: Table 4, migration ED50 versus insulin ED50; for “Classical”:“BSCI” potency ratio, Human: THP-1 migration ED50 versus Panc-2H4 insulin ED50
# Protocol: Leukocyte migration was measured using the 96-well format micro Transwell® assay system from Neuroprobe (Gaithersburg, Md., USA). In principle, this assay consists of two chambers separated by a porous membrane. The chemoattractant is placed in the lower compartment and the cells are placed in the upper compartment.
# First, the cell suspension to be placed in the upper compartment was prepared. The THP-1 cells were pelleted by centrifugation (770×g; 4 mins) and washed with Geys Balanced Salt Solution with 1 mg/ml BSA (GBSS+BSA). This wash was then repeated, and the cells re-pelleted before being resuspended in a small volume of GBSS+BSA for counting, for example using a standard haemocytometer.
# This ensured that there were 100,000 THP-1 cells in each 25 μl of the solution to be placed in the upper chamber of the plate.
# To the third pot, GBSS+BSA plus vehicle as appropriate was added so that the volumes in three pots are equal, acting as a control.
# Next, the chemoattractant solution to be placed in the lower compartment was prepared. […] This solution was divided into three pots, as for the cell suspension. To one pot, the BSCI was added to the same final concentration as was added to the cell suspension, in the second pot the BSCI and the sstr2 antagonist were both added at the same concentration as previously added to the cell suspension, while to the remaining pot GBSS+BSA plus vehicle as appropriate was added so that the volumes in the three pots were equal.
# Once the chemoattractant solutions for the lower wells and cell solutions for the upper chambers were prepared, the migration chamber was assembled. 29 μl of the appropriate chemoattractant solution was placed into the lower well of the chamber. Assays were performed with at least triplicate determinations of each condition. Once all the lower chambers were filled, the porous membrane was applied to the chamber in accordance with the manufacturer's instructions. Finally, 25 μl of the appropriate cell solution was applied to each upper chamber. A plastic lid was placed over the entire apparatus to prevent evaporation.
# The assembled chamber was incubated at 37° C., 5% CO2, for 2 hours.
# At the end of the incubation, the liquid cell suspension was gently removed from the upper chamber, 20 μl of ice-cold 20 mM EDTA in PBS was added to the upper chamber, and the apparatus was incubated at 4° C. for 15 mins. This procedure caused any cells adhering to the underside of the membrane to fall into the lower chamber.
# After this incubation the filter was carefully flushed with GBSS+BSA to wash off the EDTA, and then the filter was removed.
# The number of cells migrated into the lower chamber under each condition can then be determined by a number of methods, including direct counting, labelling with fluorescent or radioactive markers or through the use of a vital dye. Typically, we utilised the vital dye MTT. 3 μl of stock MTT solution were added to each well, and then the plate was incubated at 37° C. for 1-2 hours during which time dehydrogenase enzymes within the cells converted the soluble MTT to an insoluble blue formazan product that could be quantified spectrophotometrically.
# In parallel, an 8-point standard curve was set up. Starting with the number of cells added to each upper chamber (100,000) and going down in 2-fold serial dilutions in GBSS+BSA, the cells were added to a plate in 25 with 3 μl of MTT stock solution added. The standard curve plate was incubated along side the migration plate. At the end of this incubation, the liquid was carefully removed from the lower chambers, taking care not to disturb the precipitated formazan product.
# The MCP-1 stimulated migration was determined by subtracting the average number of cells that reached the lower compartment in wells where no MCP-1 was added from the average number of cells that reached the lower compartment where MCP-1 was present at 25 ng/ml.
# [1] = target: type 2 somatostatin receptor (sstr2), human (human) (UniProt P30874); experiment: cell-based or functional assay
# [2] = target: type 2 somatostatin receptor (sstr2), rat (rat) (UniProt P30680); experiment: cell-based or functional assay
# sstr2 = target: T1, sstr2 (Homo sapiens, UniProt P30874); experiment: [3H]-BN83250 equilibrium binding to THP-1 cells (Scatchard/competition)
# T1 construct: with 1×10^6 THP-1 cells in Gey's Balanced Salt Solution, 10 nM [^3H]-BN83250; endogenous in cells; host or cells: THP-1 cells (intact cells, 4 °C)
# Protocol: Methods: [^3H]-BN83250 was synthesesized from (S,E)-3-(2′,2′-dimethyldodec-4′-enoylamino)-caprolactam by catalytic hydrogenation using tritium gas over a palladium catalyst (CRB Ltd, Cleveland, UK), yielding the tritiated product at a concentration of 270 μM in ethanol with a specific activity of 220Ci/mmol. The (S,E)-3-(2′,2′-dimethyldodec-4′-enoylamino)-caprolactam was prepared as follows: (S,S)-3-amino-caprolactam hydro-pyrrolidine-5-carboxylate (10 mmol) and Na2CO3 (30 mmol) in water (30 ml) were added to a solution of 2,2-dimethyl-dodec-4-enoyl chloride (10 mmol) in dichloromethane (30 ml) at ambient temperature and the reaction was stirred for 12 hours. The organic layer was then separated and the aqueous phase was extracted with additional dichloromethane (2×25 ml). The combined organic layers were dried over Na2CO3 and reduced in vacuo. The residue was purified by silica column chromatography (1:1 EtOAc:hexanes to EtOAc) to give (S,E)-3-(2′,2′-dimethyl-dodec-4′-enoyl)amino-caprolactam as a colourless oil (2.12 g, 63%). The radiolabelled compound was stored in the dark at 4° C. until required. Prior to use the specific activity was adjusted by addition of unlabelled BN83250.
# For the analysis of binding, individual reactions were set up (in triplicate for each condition), with 1×10^6 THP-1 cells in Gey's Balanced Salt Solution, 10 nM [^3H]-BN83250 (at 50 Ci/mmol) and various concentrations of (S)-3(2′2′-dimethylpropionoylamino)-tetrahydropyridin-2-one (10 pM to 10 μM). Excess (100 μM) unlabelled BN83250 was used to determine the level of non-specific binding. After 2 hours at 4° C. (conditions previously shown to achieve equilibrium binding, and which prevent uptake of the radioligand that would result in an over-estimate of binding) excess label was washed away by centrifugation (3 washes with 5 ml of Gey's Balanced Salt Solution) and the bound radioactivity was determined by scintillation counting of the solubilised cell pellet.
# Hits from this assay were confirmed using conventional Scatchard analysis, exactly as described in Example 4 above.
# TNF-alpha = experiment: Sub-lethal endotoxemia model, serum TNF-alpha after LPS; format: in vivo, mouse; conditions: very high / highest doses, 2 hours post LPS
# Protocol: We selected the sub-lethal endotoxemia model in mouse, because this has been well characterised in our laboratory (see for example Fox et al. (2002) J. Med. Chem. 45:360-70; Fox et al. (2005) J. Med. Chem. 48:867-74). The extent of systemic inflammation in response to a single intraperitoneal injection of bacterial lipopolysaccharide (LPS) can be estimated by measuring serum TNF-alpha 2 hours post challenge.
# Methods: Mice (CD1 strain; adult males; 6 per group) were treated with BSCI (in an appropriate vehicle) or with vehicle alone by an appropriate route. […] Simultaneously, one set of mice at each BSCI concentration received BIM 23627 at 4 mg/animal (120 mg/kg) by sub-cutaneous injection (a treatment condition known to suppress classical sstr2-mediated signalling, such as GH release, in rats; Tulipano et al. (2002) 143:1218-24). Between 30 mins and 1 hour after dosing (a period when a maximal plasma concentration of BSCI has been achieved), the inflammatory challenge was elicited by intraperitoneal injection of 750 μg of LPS (Sigma; L4130 lot#024K4077; 900,000 EU/mg).
# After a further 2 hours, the animals were sacrificed by CO2 asphyxiation, and blood was drawn by cardiac puncture. Serum was prepared by conventional methods, and the level of TNF-alpha in serum was measured using an ELISA (R&D Systems; Murine Quantikine code# MTA00) performed in accordance with the manufacturer's instructions.
# fetal rat pituicytes = experiment: Rat pituicyte GH suppression assay; format: cell-based; conditions: Table 3; suppression compared to vehicle
# Source text: as §1
# Methods: Cultures of fetal rat pituicytes were established exactly as previously described (Murray et al. (2004) J. Clin. Endocrinol. Metab. 89:3027-32) by enzymatic dispersion. After 48 hrs in low glucose DMEM plus 10% FCS, cells in 48 well plates (5×10^4 cells per well) were washed for 4 hrs in serum-free DMEM and then incubated with test agents at various concentrations for a further 24 hrs in serum-free DMEM. At the end of this period, the conditioned medium was harvested, any cell debris removed by centrifugation and assayed for […] using a commercially available ELISA (Linco; cat# EZRMGH-45K) in accordance with the manufacturer's instructions.
# as §2
# [3] = tested on: rat peripheral blood leukocytes; experiment: Rat chemokine-induced PBMC migration assay; format: cell-based
# Protocol: Similarly, where human Panc-2H4 cells are used to determine the effect of agents on classical sstr2 targets, the result is compared with the effect of the same agents on chemokine-induced migration of human THP-1 cells. […] For this reason, the ratio of “classical” to “BSCI” activity in Table 3 is calculated separately for rat and human.
# [4] = Table 4, 0.01-1,000 nM, 1% DMSO, read-out: Panc-2H4 insulin suppression assay (“classical” target) ED50
# T1 sequence (P30874 whole entry): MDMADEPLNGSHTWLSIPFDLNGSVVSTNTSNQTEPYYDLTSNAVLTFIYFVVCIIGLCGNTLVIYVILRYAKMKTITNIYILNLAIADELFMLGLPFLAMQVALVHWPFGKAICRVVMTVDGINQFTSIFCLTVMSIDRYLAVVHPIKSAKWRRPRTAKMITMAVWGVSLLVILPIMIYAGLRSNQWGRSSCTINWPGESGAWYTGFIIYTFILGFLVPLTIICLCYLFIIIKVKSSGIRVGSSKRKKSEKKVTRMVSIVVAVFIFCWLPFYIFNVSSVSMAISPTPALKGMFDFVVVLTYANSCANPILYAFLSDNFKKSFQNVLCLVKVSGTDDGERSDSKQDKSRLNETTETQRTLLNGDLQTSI
# type 2 somatostatin receptor (sstr2), human (human), sequence (P30874 whole entry): as above
# type 2 somatostatin receptor (sstr2), rat (rat), sequence (P30680 whole entry): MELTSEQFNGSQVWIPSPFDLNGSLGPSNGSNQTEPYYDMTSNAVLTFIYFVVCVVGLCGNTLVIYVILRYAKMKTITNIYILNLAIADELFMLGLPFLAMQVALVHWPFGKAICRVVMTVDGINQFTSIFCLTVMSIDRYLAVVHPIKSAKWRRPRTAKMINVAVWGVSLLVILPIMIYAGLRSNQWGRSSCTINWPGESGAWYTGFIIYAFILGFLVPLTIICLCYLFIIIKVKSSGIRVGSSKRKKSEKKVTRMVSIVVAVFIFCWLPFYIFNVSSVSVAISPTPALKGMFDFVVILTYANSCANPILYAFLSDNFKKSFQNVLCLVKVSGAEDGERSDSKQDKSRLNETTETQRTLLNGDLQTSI
molecule,measurement,setting,value
CC(=O)NC(CC(N)=O)C(=O)NC(C(=O)NCC1CCCC(CN)C1)C(C)c1c[nH]c2ccccc12 (mixture of isomers) [D],Panc-2H4 insulin suppression assay Max Effect,Panc-2H4 cells; Table 4,37%
CC(c1c[nH]c2ccccc12)C(NC(=O)NC1CCCNC1=O)C(=O)NCC1CCCC(CN)C1 (stereo not shown) [Compound C],Panc-2H4 insulin suppression assay Max Effect,Panc-2H4 cells; Table 4,56%
same,RATIO,THP-1 cells,0.02
BIM58187 (peptide),Human Panc-2H4 insulin suppression assay ED50,[1],> 1000 nM
same,Human Panc-2H4 insulin suppression assay Max effect,[1],< 10%
same,Human chemokine-induced THP-1 migration assay ED50,[1],6.9 nM
same,Human chemokine-induced THP-1 migration assay Max effect,[1],100%
same,Rat chemokine-induced PBMC migration assay ED50,[2],15 nM
same,Rat chemokine-induced PBMC migration assay Max effect,[2],100%
same,Rat pituicyte GH suppression assay ED50,[2],550 nM
same,Rat pituicyte GH suppression assay Max effect,[2],42%
CC(=O)NC(=O)C(NC(=O)N1CCC(n2c(=O)[nH]c3ccccc32)CC1)C(C)c1c[nH]c2ccccc12 (stereo not shown) [E],Panc-2H4 insulin suppression assay Max Effect,Panc-2H4 cells; Table 4,<10%
same,EC50,Panc-2H4 cells; [4],> 1000 nM
CC(C)(C)C(=O)N[C@H]1CCCNC1=O,Hill Slope,sstr2; competition with [3H]-BN83250,approximately −1.0
somatostatin-28 (from UniProt P61278 89-116) (peptide),Human Panc-2H4 insulin suppression assay ED50,[1],0.14 nM
same,Human Panc-2H4 insulin suppression assay Max effect,[1],51%
same,Human chemokine-induced THP-1 migration assay ED50,[1],0.9 nM
same,Human chemokine-induced THP-1 migration assay Max effect,[1],38%
same,Rat chemokine-induced PBMC migration assay ED50,[2],1.2 nM
same,Rat chemokine-induced PBMC migration assay Max effect,[2],44%
same,Rat pituicyte GH suppression assay ED50,[2],0.17 nM
same,Rat pituicyte GH suppression assay Max effect,[2],73%
C[C@@H]1C[C@H]2[C@@H]3CCC4=CC(=O)C=C[C@]4(C)[C@@]3(F)[C@@H](O)C[C@]2(C)[C@@]1(O)C(=O)CO [dexamethasone],inhibition of serum TNF-alpha,TNF-alpha,more than 90%
CC(c1c[nH]c2ccccc12)C(NC(=O)N1CC(=O)NC(=O)C1)C(=O)NCC1CCCC(CN)C1 (stereo not shown) [Compound B],Panc-2H4 insulin suppression assay Max Effect,Panc-2H4 cells; Table 4,52%
same,RATIO,THP-1 cells,1.3
SST-28: alternatively processed sst28 natural ligand,Max effect (maximum inhibition),"THP-1 cells; Table 2, at the highest dose tested (1-10 μM)",40-60%
CC1(C(=O)N[C@H]2CCCCNC2=O)CCCCC1 [(S)-3-(1′-methylcyclohexyl-1′-carbonylamino)-caprolactam],competition with BN83250 binding to sstr2,sstr2,compete with BN83250 binding to sstr2 to a similar extent
"O=C1NCCCC[C@@H]1NC(=O)C12CC3CC(CC(C3)C1)C2 [BN83470, (S)-3-(admantane-1′-carbonylamino)-caprolactam]",Rat pituicyte GH suppression assay Max effect,fetal rat pituicytes,56%
same,EC50,"Panc-2H4 cells; Table 3, read-out: Human Panc-2H4 insulin suppression assay ED50",> 1000 nM
same,Human Panc-2H4 insulin suppression assay Max effect,Panc-2H4 cells; Table 3,<10%
same,inhibition of insulin secretion by Panc-2H4,Panc-2H4 cells; highest concentrations tested,None of these agents inhibited insulin secretion
same,"“Classical”:“BSCI” potency ratio, Rat",[3]; PBMC migration ED50 versus pituicyte GH ED50,0.0008
same,Rat chemokine-induced PBMC migration assay Max effect,[3]; Table 3,100%
same,competition with BN83250 binding to sstr2,sstr2,compete with BN83250 binding to sstr2 to a similar extent
same,"“Classical”:“BSCI” potency ratio, Human",THP-1 cells,<0.00008
same,Human chemokine-induced THP-1 migration assay Max effect,THP-1 cells; Table 3,100%
NCC1CCCC(CNC(=O)C(Cc2ccccc2)NC(=O)N2CCC(n3c(=O)[nH]c4ccccc43)CC2)C1 (stereo not shown) [F],Panc-2H4 insulin suppression assay Max Effect,Panc-2H4 cells; Table 4,<10%
same,EC50,Panc-2H4 cells; [4],> 1000 nM
"C[C@@H](c1c[nH]c2ccccc12)[C@@H](NC(=O)N1CCC(n2c(=O)[nH]c3ccccc32)CC1)C(=O)NC[C@@H]1CCC[C@H](CN)C1 [L-779,976]",Rat pituicyte GH suppression assay Max effect,fetal rat pituicytes,55%
same,Human Panc-2H4 insulin suppression assay Max effect,Panc-2H4 cells; Table 3,40%
same,Panc-2H4 insulin suppression assay Max Effect,Panc-2H4 cells; Table 4,40%
same,Panc-2H4 insulin suppression assay Max Effect,Panc-2H4 cells; Table 5,40%
same,"“Classical”:“BSCI” potency ratio, Human",THP-1 cells,27
